In PMC11987438, “A novel approach utilizing spirocyclic thiopyrimidinone compounds against herpes simplex virus with underlying antiviral mechanisms of action” (Virology Journal, 2025):
≈ marks a conversion by molar mass, not a printed value. Entries after “also recorded” stand apart in the source; their conditions may differ.

Key:
[1] = Cytotoxicity screening via crystal violet assay; format: cell-based; conditions: African green monkey, Vero cells
Experimental: A volume of 100 µL of cell suspension containing 10^4 cells was placed in each well of a 96-well plate. The plates containing the cells were then placed in a 5% humidified CO2 incubator at 37 °C for 24 h to allow the cells to form a confluent monolayer. By twofold serial dilution, each compound was diluted in 0.01 mL of medium, starting with a concentration of 1000 µg/ml. The diluted compounds were then cultured for 72 h at 37 °C in an environment with 5% CO2. Each concentration was tested 3 times. After the incubation period, the supernatant was discarded, and the cells were washed with 1x phosphate-buffered saline (PBS). The cells were then fixed with 100 µL of 10% formaldehyde and incubated at room temperature for 20 min. The cells were subsequently washed five times with running water. Next, 50 µL of a 0.1% solution of crystal violet dye (LOBA CHEMIE. LTD; C.I.No. 42555) was added to each well and incubated for 15 min. The cell monolayers were washed again and allowed to air dry. Finally, the crystal violet dye was dissolved by adding 200 µL of methanol, and the mixture was incubated for 20 min. The absorbance was measured via an ELISA plate reader (FLUOstar Omega Ω) at a wavelength of 570 nm. Cell viability was calculated as a percentage of the average optical density of the cell controls, which was set to 100%. The 50% cytotoxic concentration (CC50) was calculated via mean dose‒response curves via GraphPad Prism.

[2] = tested on: Caspase-3 protein expression; test: Western blot of Caspase-3 protein expression in HSV-2-infected Vero cells; format: cell-based, African green monkey; conditions: HSV-2-infected Vero cells (MOI = 1) treated at IC50; 1, 3, 6, 12 and 24 h postinfection
Experimental: A 3 ml cell suspension was cultured in six-well cell culture plates supplemented with complete DMEM and then incubated at 37 °C in a 5% CO2 incubator for 24 h. After incubation, the supernatant was discarded, and the cell monolayer was washed with 3 ml of 1x PBS. The cell monolayer was then treated in duplicate according to the IC50. Duplicates for cell and virus control were included. The cell pellets were collected at 1, 3, 6, 12, and 24 h postinfection. The cell pellets were lysed with ice-cold RIPA lysis buffer supplemented with fresh protease inhibitor cocktail, incubated for 30 min on ice, and centrifuged at 15,000 RPM at 4 °C for 20 min, after which the supernatant was transferred to a fresh tube. The total water-soluble protein concentration was quantified via a bicinchoninic acid protein assay kit (Micro BCA™ Protein Assay Kit, REF: 23235; Thermo Scientific). Ten micrograms of protein were loaded in 2x Laemmli buffer and separated via 12% sodium dodecyl sulfate–polyacrylamide gel electrophoresis (SDS‒PAGE) along with a protein ladder (Cat. No. PM008-0500, GeneDirex, Taiwan). The proteins were transferred to a 0.2 μm PVDF membrane (REF.03010040001, Sigma Aldrich, St. Louis, MO, USA) by a Mini-PROTEAN® Tetra Cell and Mini Trans-Blot (Bio-Rad) in transfer buffer (Bio-Rad Tris/Glycine transfer buffer Cat. #1610734) for 45 min at 100 V and 350 mA. β-actin (REF. No. MA5-11869; Invitrogen) was detected as a housekeeping protein against the Caspase-3 mAb (REF. No. 9662 S, Cell Signaling, Danvers, MA, USA) at a 1:1000 dilution via horseradish peroxidase-conjugated anti-mouse IgG (61-6520; Invitrogen) and anti-rabbit IgG (31460; Invitrogen) diluted 1:3000. Bands were detected via SuperSignal™ West Pico PLUS Chemiluminescent Substrate enhanced chemiluminescence (ECL, REF. 34577, Thermo Scientific, USA). Images were captured with a Bio-Rad ChemiDoc gel documentation imaging system and analyzed by Image Lab (Bio-Rad 6.1).

[3] = tested on: herpes simplex virus type 2 (HSV-2); test: Inhibition mechanism of action: virucidal; format: cell-based, human herpes simplex virus type 2; conditions: compound mixed with HSV-2 (MOI = 1) 1 h at room temperature before inoculation of Vero cells, 72 h, MTT
Experimental: (§1) To gain a better understanding of how each compound’s antiviral activity inhibits specific steps in the viral cycle, we investigated three mechanisms: virus adsorption, virus replication, and viral fusion (virucidal). For the adsorption mechanism, we seeded 100 µl of cell suspension into 96-well cell culture plates under the previously mentioned conditions. After 24 h, the medium was discarded, and the adherent cells were washed with 1x PBS. Then, we added 100 µl of each promising compound at a pretested safe cytotoxic concentration (CC50) to the cells in triplicate. The plates were then incubated at 4 °C for 1 h to allow the compounds to adsorb onto the cell receptors. After incubation, the compound was removed, and the cells were washed again with 1x PBS. Next, we added 100 µl of the virus mixture (MOI = 1) to each well and incubated it for 1 h at 37 °C in a CO2 incubator. The virus was removed, and the cells were washed once more with 1x PBS. Finally, we added 100 µl of maintenance media containing 3% bovine serum albumin (BSA) and incubated the plates for 72 h at 37 °C in a 5% CO2 incubator. For the replication mechanism, we added 100 µl of diluted virus (MOI = 1) to a preseeded 96-well cell culture plate and incubated it for 1 h at 37 °C in a CO2 incubator. After incubation, the virus was removed, and 100 µl of each compound was added in triplicate. The plates were then incubated for 1 h at 37 °C in a CO2 incubator. Next, 100 µl of maintenance medium was added to each well. For the virucidal mechanism, we mixed an equal volume of the safe concentration of the pretested compound with the virus dilution (MOI = 1) and incubated the mixture at room temperature for 1 h. We subsequently prepared twofold serial dilutions of the mixture and inoculated them into the cells, which were then incubated for 1 h at 37 °C in a CO2 incubator. After incubation, the supernatant was removed, the cells were washed, and 100 µl of maintenance media was added. […] Finally, we measured the absorbance at λ = 570 nm via a plate reader (FLUOstar Omega Ω).

[4] = tested on: herpes simplex virus type 2 (HSV-2); test: Inhibition mechanism of action: virus adsorption; format: cell-based, human herpes simplex virus type 2; conditions: Vero cells pretreated with compound at safe concentration 1 h at 4 °C, then HSV-2 MOI = 1, 72 h, MTT
Experimental: as §1, with “incubator.” for “incubator. After incubation, the virus was removed, and 100 µl of each compound was added in triplicate. The plates were then incubated for 1 h at 37 °C in a CO2 incubator. Next, 100 µl of maintenance medium was added to each well. For the virucidal mechanism, we mixed an equal volume of the safe concentration of the pretested compound with the virus dilution (MOI = 1) and incubated the mixture at room temperature for 1 h. We subsequently prepared twofold serial dilutions of the mixture and inoculated them into the cells, which were then incubated for 1 h at 37 °C in a CO2 incubator. After incubation, the supernatant was removed, the cells were washed, and 100 µl of maintenance media was added.”

[5] = tested on: herpes simplex virus type 2 (HSV-2); test: Antiviral activity screening by MTT; format: cell-based, human herpes simplex virus type 2; conditions: for IC50: Human alphaherpesvirus 2, HSV-2 (MOI = 1) in Vero cells, 72 h, MTT; for SI: selectivity index, CC50 (Vero) / IC50 (HSV-2)
Experimental: In accordance with the previous section, the CC50 (50% cytotoxic concentration) of each compound was determined as the starting point for screening its antiviral activity. A volume of 100 µL of cell suspension containing 10^4 cells was added to each well of a 96-well plate. The plates with the cells were then placed in a 5% humidified CO2 incubator at 37 °C for 24 h to allow the cells to adhere and form a monolayer. The cell monolayers were subsequently washed once with 1x phosphate-buffered saline (PBS) and infected with herpes simplex virus type 2 (HSV-2) (MOI = 1) in triplicate for 1 h. After the infection period, 100 µL of each compound’s serial dilution was added to the infected cells. A triplicate of untreated infected cells was included as a positive control (VC), and the mixture was incubated for 72 h at 37 °C in a 5% CO2 incubator. Following the 72-hour incubation, the supernatant medium was removed, and the cell monolayers were washed with 1x PBS. Then, 25 µL of a 0.5 mg/mL solution of MTT (3-(4,5-dimethylthiazol-2-yl)-2,5-diphenyltetrazolium bromide) obtained from Sigma‒Aldrich, Saint Louis, MO, USA, was added to each well and incubated for 2 h at 37 °C. The MTT reagent was subsequently discarded, and 200 µL of acidified isopropanol (1 N HCl in 99.9% isopropanol) was added to dissolve the formazan crystals formed by the viable cells. Finally, the color intensity was measured, and the absorbance was recorded via an ELISA plate reader. The data obtained were used to calculate the IC50 values (50% inhibitory concentration) via nonlinear regression analysis. This was accomplished by plotting the logarithm of the inhibitor concentration against the normalized response. The analysis was performed via GraphPad Prism 5 analysis software.

[6] = tested on: herpes simplex virus type 2 (HSV-2); test: Inhibition mechanism of action: virus replication; format: cell-based, human herpes simplex virus type 2; conditions: Vero cells infected with HSV-2 MOI = 1 for 1 h, then compound, 72 h, MTT
Experimental: as §1

| SMILES | CC50 at 72 h [1] [µg/mL] | Caspase-3 protein expression level vs HSV-2 virus control [2] | inhibition by virucidal mechanism [3] [%] | inhibition of HSV-2 adsorption [4] [%] | IC50 [5] [µg/mL] | inhibition of HSV-2 replication [6] [%] | SI [5] |
| --- | --- | --- | --- | --- | --- | --- | --- |
| CSC1NC(=O)C(C#N)C2(CCCCC2)N1 (stereo not drawn) [Compound 2] | 566 (≈ 2360 µM) | decreased; also recorded: slight changes | 8 | 32 | 130 (≈ 544 µM) | 26 |  |
| CC(=O)C(SC1NC(=O)C(C#N)C2(CCCCC2)N1)C(=O)Nc1ccccc1 (stereo not drawn) [Compound 3, 2-((5-cyano-4-oxo-1,3-diazaspiro[5.5]undecan-2-yl)thio)-3-oxo-N-phenylbutanamide] | 509 (≈ 1270 µM) | decreased; also recorded: significant decrease | 8 |  | 45.4 (≈ 113 µM) | 34 |  |
| N#CC1(/N=N/c2ccccc2)C(=O)NC(=S)NC12CCCCC2 (stereo not drawn) [Compound 5a] | 43.9 (≈ 134 µM) |  |  |  | 974 (≈ 2970 µM) |  | 0.045 |
| N#CC1(/N=N/c2ccc(S(N)(=O)=O)cc2)C(=O)NC(=S)NC12CCCCC2 (stereo not drawn) [Compound 5b] | 124 (≈ 306 µM) |  |  |  | 536 (≈ 1320 µM) |  | 0.231 |
| N#CC1(/N=N/c2ccc(S(=O)(=O)Nc3ncccn3)cc2)C(=O)NC(=S)NC12CCCCC2 (stereo not drawn) [Compound 5c] | 53.7 (≈ 111 µM) | decreased; also recorded: slight changes | 15 | 42 | 13.9 (≈ 28.8 µM) | 30 | 3.84 |
| N#CC1(/N=N/c2ccc(S(=O)(=O)Nc3ccccn3)cc2)C(=O)NC(=S)NC12CCCCC2 (stereo not drawn) [Compound 5d] | 466 (≈ 963 µM) |  |  |  | 217 (≈ 449 µM) |  | 2.14 |
| N#CC1(/N=N/c2ccc(Cl)cc2)C(=O)NC(=S)NC12CCCCC2 (stereo not drawn) [Compound 5e] | 103 (≈ 284 µM) |  |  |  | 346 (≈ 956 µM) |  | 0.296 |
| N#CC1(/N=N/c2ccc(S(=O)(=O)Nc3nccs3)cc2)C(=O)NC(=S)NC12CCCCC2 (stereo not drawn) [Compound 5f] | 107 (≈ 219 µM) |  |  |  | 399 (≈ 814 µM) |  | 0.268 |
| CC(=O)C(SC1NC(=O)C(C#N)(/N=N/c2ccc(Cl)cc2)C2(CCCCC2)N1)C(C)=O (stereo not drawn) [Compound 6a] | 62.4 (≈ 135 µM) |  |  |  | 53.8 (≈ 116 µM) |  | 1.15 |
| CC(=O)C(SC1NC(=O)C(C#N)(/N=N/c2ccc(S(N)(=O)=O)cc2)C2(CCCCC2)N1)C(C)=O (stereo not drawn) [Compound 6b] | 940 (≈ 1860 µM) |  |  |  | 5410 (≈ 10700 µM) |  | 0.173 |
| CC(=O)C(SC1NC(=O)C(C#N)(/N=N/c2ccc(S(=O)(=O)Nc3ccccn3)cc2)C2(CCCCC2)N1)C(C)=O (stereo not drawn) [Compound 6c] | 42.1 (≈ 72.1 µM) |  |  |  | 749 (≈ 1280 µM) |  | 0.056 |
